Experimental data: PubChem BioAssay AID1918995 (Molecular Pharmacology Branch, DTP, NCI, 2023)
Where “and” joins values, the source holds several entries; their conditions need not be identical. Equal values may be shown once.

Tested on: 324938-238-R-J1-PDC complex spheroid growth, % test/control
Test: Anticancer human tumor 324938-238-R-J1-PDC patient-derived bladder carcinoma cell line growth inhibition [AhR]
Conditions: for IC50: curve of first compound; for viability, T/C: stronger effect = lower value
Excerpt: Multicellular complex tumor spheroid response to aryl hydrocarbon receptor antagonists in combination with a variety of drugs and investigational agents in selected tumor cell lines
The current study was undertaken to assess response to aryl hydrocarbon receptor antagonists in combination with standard-of-care drugs and investigational agents in solid tumor complex spheroid models. Complex spheroids include a stromal component modeled by human endothelial cells (HUVEC) and fibroblasts modeled by human mesenchymal stem cells (MSCs). The concentration ranges selected for each drug and investigational agent were based upon clinically achievable concentrations if the clinical Cmax of the agent was known.
Compounds. The drugs and investigational agents: BAY 2416964 (NSC825713), GNF351 (NSC835774), CH-223191 (NSC835775), CPI-455 (NSC825282), aza-TdCyd (NSC777586), decitabine (NSC127716), belinostat (NSC758774), entinostat (NSC756642), pevonedistat (NSC761192), tazemetostat (NSC777109), talazoparib (NSC765396), olaparib (NSC753686), selinexor (NSC780203), nedisertib (M3814, NSC802822), bortezomib (NSC756655), venetoclax (NSC766270), doxorubicin (NSC123127), elimusertib (BAY189344, NSC800525), ceralasertib (AZD6738, NSC777638), TAK-243 (NSC785004), alisertib (NSC759677), etoposide (NSC141540), topotecan (NSC609699), eribulin (NSC707389), gemcitabine (NSC613327), carboplatin (NSC241240), cisplatin (NSC119875), and SN-38 (NSC673596) were obtained from the National Cancer Institute (NCI) Developmental Therapeutics Program Chemical Repository (32). The FDA-approved anticancer drug set is available from the Developmental Therapeutics Program at https://dtp.cancer.gov/organization/dscb/obtaining/available plates.htm. […] The stock solutions were prepared in dimethyl sulfoxide (DMSO, Sigma-Aldrich, St. Louis, MO, cat. D2650), except for the platinum compounds which were prepared in saline (Quality Biological, Gaithersburg, MD, cat. 114-055-101), at 800-fold the tested concentration and stored at -70 degrees C prior to their use. All drugs and investigational agents were tested over a range starting from a high concentration at or near the clinical Cmax and decreasing in half-log increments. If the clinical Cmax for an agent had not been determined, the highest concentration tested was 10 microM (Table 1).
Cell Culture. All cells were maintained in an incubator at 37 degrees C and 5% CO2 with 95% humidity. The PDC lines were cultured according to standard operating procedures established by the NCI PDMR (https://pdmr.cancer.gov). Briefly, all PDCs were thawed and cultured in Matrigel-coated flasks prepared with a working solution of 1X Ham's F-12 nutrient mix, without supplementation (Invitrogen, Waltham, MA, cat. 11765054), 100 U/mL penicillin-streptomycin (Invitrogen, cat. 15140122), and 2.5% Matrigel (Corning Inc., Corning, NY, cat. 354248) for the first three passages. All PDCs were cultured in complete DMEM/F-12 media containing advanced DMEM/F-12 (Invitrogen, cat. 12634028), 4.9% defined fetal bovine serum, heat inactivated (HyClone Laboratories Inc., Logan, UT, cat. SH30070.03HI), 389 ng/mL hydrocortisone (Sigma-Aldrich, cat. H4001), 9.7 ng/mL human EGF recombinant protein (Invitrogen, cat. PHG0313), 23.4 microg/mL adenine (Sigma-Aldrich, cat. A2786), 97.3 U/mL penicillin-streptomycin (Invitrogen, cat. 15140122), 1.9 mM L-glutamine (Invitrogen, cat. 25030081), and 9.7 microM Y-27632 dihydrochloride (Tocris Bioscience, Bristol, United Kingdom, cat. 1254). The PDCs were cultured in complete DMEM/F12 media without 10 microM Y-27632 dihydrochloride for at least two passages prior to the screen. The established cell lines NCI-H1341 and […] were cultured in DMEM/F-12, HEPES (Invitrogen, cat. 11330032), 5% defined fetal bovine serum (HyClone Laboratories Inc., cat. SH30070.03), ITS premix universal culture supplement [insulin (5 microg/mL), transferrin (5 microg/mL), and selenious acid (5 ng/mL)] […]

[1] = second compound 0.1 µM, first compound 0.0316 µM
[2] = second compound 0.1 µM, first compound 0.1 µM
[3] = second compound 0.1 µM, first compound 0.316 µM
[4] = second compound 0.1 µM, first compound 1 µM
[5] = second compound 0.1 µM, first compound 3.16 µM
[6] = second compound 0.1 µM, first compound 10 µM
[7] = second compound 0.316 µM, first compound 0.0316 µM
[8] = second compound 0.316 µM, first compound 0.1 µM
[9] = second compound 0.316 µM, first compound 0.316 µM
[10] = second compound 0.316 µM, first compound 1 µM
[11] = second compound 0.316 µM, first compound 3.16 µM
[12] = second compound 0.316 µM, first compound 10 µM
[13] = second compound 1 µM, first compound 0.0316 µM
[14] = second compound 1 µM, first compound 0.1 µM
[15] = second compound 1 µM, first compound 0.316 µM
[16] = second compound 1 µM, first compound 1 µM
[17] = second compound 1 µM, first compound 3.16 µM
[18] = second compound 1 µM, first compound 10 µM
[19] = second compound 3.16 µM, first compound 0.0316 µM
[20] = second compound 3.16 µM, first compound 0.1 µM
[21] = second compound 3.16 µM, first compound 0.316 µM
[22] = second compound 3.16 µM, first compound 1 µM
[23] = second compound 3.16 µM, first compound 3.16 µM
[24] = second compound 3.16 µM, first compound 10 µM
[25] = second compound 10 µM, first compound 0.0316 µM
[26] = second compound 10 µM, first compound 0.1 µM
[27] = second compound 10 µM, first compound 0.316 µM
[28] = second compound 10 µM, first compound 1 µM
[29] = second compound 10 µM, first compound 3.16 µM
[30] = second compound 10 µM, first compound 10 µM
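Further: spheroids exposed to agents for seven days before viability read.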

## COc1cccc2c1C(=O)c1c(O)c3c(c(O)c1C2=O)CC(O)(C(=O)CO)CC3OC1CC(N)C(O)C(C)O1 (stereo unspecified) + Cc1ccccc1N=Nc1ccc(NC(=O)c2ccnn2C)c(C)c1
Second compound 0.1 µM
  IC50: < 31.6 nM
Second compound 0.316 µM
  IC50: < 31.6 nM
Second compound 1 µM
  IC50: < 31.6 nM
Second compound 3.16 µM
  IC50: < 31.6 nM
Second compound 10 µM
  IC50: < 31.6 nM
[1]
  viability, T/C: 34.7%
[2]
  viability, T/C: 29.3%
[3]
  viability, T/C: 18.9%
[4]
  viability, T/C: 4.96%
[5]
  viability, T/C: 0.1%
[6]
  viability, T/C: 0.15%
[7]
  viability, T/C: 37.7%
[8]
  viability, T/C: 35.9%
[9]
  viability, T/C: 13.8%
[10]
  viability, T/C: 4.13%
[11]
  viability, T/C: 0.05%
[12]
  viability, T/C: 0.13%
[13]
  viability, T/C: 35.1%
[14]
  viability, T/C: 31.4%
[15]
  viability, T/C: 16.4%
[16]
  viability, T/C: 3.09%
[17]
  viability, T/C: 0.05%
[18]
  viability, T/C: 0.12%
[19]
  viability, T/C: 34.7%
[20]
  viability, T/C: 31.7%
[21]
  viability, T/C: 15.9%
[22]
  viability, T/C: 3.16%
[23]
  viability, T/C: 0.08%
[24]
  viability, T/C: 0.13%
[25]
  viability, T/C: 38%
[26]
  viability, T/C: 37.6%
[27]
  viability, T/C: 22%
[28]
  viability, T/C: 5.73%
[29]
  viability, T/C: 0.14%
[30]
  viability, T/C: 0.2%

## COc1cccc2c1C(=O)c1c(O)c3c(c(O)c1C2=O)CC(O)(C(=O)CO)CC3OC1CC(N)C(O)C(C)O1 (stereo unspecified) + CC(CO)NC(=O)c1cc(-c2ccc(Cl)cc2)nn(-c2cnn(C)c2)c1=O
Second compound 0.1 µM
  IC50: < 31.6 nM
Second compound 0.316 µM
  IC50: < 31.6 nM
Second compound 1 µM
  IC50: < 31.6 nM
Second compound 3.16 µM
  IC50: < 31.6 nM
Second compound 10 µM
  IC50: < 31.6 nM
[1]
  viability, T/C: 33.5%
[2]
  viability, T/C: 29.2%
[3]
  viability, T/C: 17.7%
[4]
  viability, T/C: 2.6%
[5]
  viability, T/C: 0.09%
[6]
  viability, T/C: 0.19%
[7]
  viability, T/C: 34.6%
[8]
  viability, T/C: 28.6%
[9]
  viability, T/C: 16.8%
[10]
  viability, T/C: 3.87%
[11]
  viability, T/C: 0.08%
[12]
  viability, T/C: 0.19%
[13]
  viability, T/C: 32.9%
[14]
  viability, T/C: 30.9%
[15]
  viability, T/C: 15.5%
[16]
  viability, T/C: 1.51%
[17]
  viability, T/C: 0.09%
[18]
  viability, T/C: 0.19%
[19]
  viability, T/C: 31%
[20]
  viability, T/C: 36.1%
[21]
  viability, T/C: 19.6%
[22]
  viability, T/C: 1.04%
[23]
  viability, T/C: 0.09%
[24]
  viability, T/C: 0.68%
[25]
  viability, T/C: 39.8%
[26]
  viability, T/C: 35.4%
[27]
  viability, T/C: 16.8%
[28]
  viability, T/C: 0.25%
[29]
  viability, T/C: 0.24%
[30]
  viability, T/C: 0.29%

## CCc1c2c(nc3ccc(O)cc13)-c1cc3c(c(=O)n1C2)COC(=O)[C@]3(O)CC
Compound 0.000949 µM
  viability, T/C: 80.8% and 57.3% and 38.8%
Compound 0.003 µM
  viability, T/C: 71% and 52.4% and 28.9%
Compound 0.00949 µM
  viability, T/C: 70.2% and 18.2% and 19%
Compound 0.03 µM
  viability, T/C: 90.4% and 15.3% and 17.9%
Compound 0.0949 µM
  viability, T/C: 78.3% and 16.9% and 17%
Compound 0.3 µM
  viability, T/C: 69.4% and 14.9% and 15.4%

## Nc1ncn(C2CC(O)C(CO)S2)c(=O)n1 (stereo unspecified) + Cc1ccccc1N=Nc1ccc(NC(=O)c2ccnn2C)c(C)c1
Second compound 0.1 µM
  IC50: > 300 nM
Second compound 0.316 µM
  IC50: > 300 nM
Second compound 1 µM
  IC50: > 300 nM
Second compound 3.16 µM
  IC50: 290 nM
Second compound 10 µM
  IC50: 296 nM
Second compound 0.1 µM, first compound 0.000949 µM
  viability, T/C: 83.2%
Second compound 0.1 µM, first compound 0.003 µM
  viability, T/C: 95.4%
Second compound 0.1 µM, first compound 0.00949 µM
  viability, T/C: 91.7%
Second compound 0.1 µM, first compound 0.03 µM
  viability, T/C: 78.5%
Second compound 0.1 µM, first compound 0.0949 µM
  viability, T/C: 72.6%
Second compound 0.1 µM, first compound 0.3 µM
  viability, T/C: 53.4%
Second compound 0.316 µM, first compound 0.000949 µM
  viability, T/C: 81.7%
Second compound 0.316 µM, first compound 0.003 µM
  viability, T/C: 90.2%
Second compound 0.316 µM, first compound 0.00949 µM
  viability, T/C: 98.3%
Second compound 0.316 µM, first compound 0.03 µM
  viability, T/C: 82.6%
Second compound 0.316 µM, first compound 0.0949 µM
  viability, T/C: 71.8%
Second compound 0.316 µM, first compound 0.3 µM
  viability, T/C: 54.3%
Second compound 1 µM, first compound 0.000949 µM
  viability, T/C: 97.1%
Second compound 1 µM, first compound 0.003 µM
  viability, T/C: 87.4%
Second compound 1 µM, first compound 0.00949 µM
  viability, T/C: 78.7%
Second compound 1 µM, first compound 0.03 µM
  viability, T/C: 78.7%
Second compound 1 µM, first compound 0.0949 µM
  viability, T/C: 65%
Second compound 1 µM, first compound 0.3 µM
  viability, T/C: 55.4%
Second compound 3.16 µM, first compound 0.000949 µM
  viability, T/C: 83.7%
Second compound 3.16 µM, first compound 0.003 µM
  viability, T/C: 85.4%
Second compound 3.16 µM, first compound 0.00949 µM
  viability, T/C: 66%
Second compound 3.16 µM, first compound 0.03 µM
  viability, T/C: 70.4%
Second compound 3.16 µM, first compound 0.0949 µM
  viability, T/C: 60.9%
Second compound 3.16 µM, first compound 0.3 µM
  viability, T/C: 48.5%
Second compound 10 µM, first compound 0.000949 µM
  viability, T/C: 81.6%
Second compound 10 µM, first compound 0.003 µM
  viability, T/C: 71.4%
Second compound 10 µM, first compound 0.00949 µM
  viability, T/C: 70.5%
Second compound 10 µM, first compound 0.03 µM
  viability, T/C: 68.8%
Second compound 10 µM, first compound 0.0949 µM
  viability, T/C: 65.8%
Second compound 10 µM, first compound 0.3 µM
  viability, T/C: 48.7%
